Measurements published in patent publication US20240199651A1, “ANTIBACTERIAL COMPOUNDS” (JANSSEN SCIENCES IRELAND UNLIMITED COMPANY, priority 2021, published 2024).
Read-outs that look alike come from different tables or passages of the source.

How the values were obtained:
[1] = tested on: Mycobacterium tuberculosis strain EH4.0 expressing green-fluorescent protein (GFP); assay: microbe, parasite or virus in culture; type: cell-based
[2] = Mitochondrial toxicity (Glu/Gal) assay; type: cell-based; details: for Score: mitotoxicity score, Glu/Gal assay; for Δ IC50, glu/IC50, gal: ratio IC50 glu / IC50 gal
Description: The compounds of the invention/examples may have advantages associated with in vitro potency, kill kinetics (i.e. bactericidal effect) in vitro, PK properties, food effect, safety/toxicity (including liver toxicity, coagulation, 5-LO oxygenase), metabolic stability, Ames II negativity, MNT negativity, aqueous based solubility (and ability to formulate) and/or cardiovascular effect e.g. on animals (e.g. anesthetized guinea pig). Data that is generated/calculated may be obtained using standard methods/assays, for instance that are available in the literature or which may be performed by a supplier (e.g. Microsomal Stability Assay—Cyprotex, Mitochondrial toxicity (Glu/Gal) assay—Cyprotex, as well as literature CYP cocktail inhibition assays). GSH can be measured (reactive metabolites, glucuronidation) to observe if a dihydrodiol is observed by LCMS (fragmentation ions), which would correspond to a dihydroxylation on the core heterocycle.

[3] = Chemical stability testing (LCMS); type: physicochemical; details: 30 µM
Protocol: • Add 3 μl of a 10 mM DMSO stock solution to 1 ml of the following solvents in a 1.5 ml HPLC vial. • DMSO (reference solution) • H2O/Acetonitril 1/1 (assay solution) • 0.1N HCl/Acetonitril 1/1 (assay solution) • Mix well, […] LCMS • Compare the chromatograms of the two assay solutions with the reference solution and report the additional peaks as degradation peaks

[4] = Test 1 (and/or Test 2), M. tuberculosis
[5] = galactose medium (Glu/Gal mitotoxicity assay), read-out: IC50, gal
[6] = glucose medium (Glu/Gal mitotoxicity assay), read-out: IC50, glu
[7] = Mycobacterium tuberculosis, Test 1 (and/or Test 2), M. tuberculosis

| Structure (SMILES) | IC50 [2, 5] | IC50 [2, 6] | Δ IC50, glu/IC50, gal [2] | IC50 ([2]; read-out: IC50, gal) | IC50 ([2]; read-out: IC50, glu) | further results |
| --- | --- | --- | --- | --- | --- | --- |
| CCc1nc2ncc(Cl)cn2c1C(=O)NCc1ccc(-c2nc3n(n2)CCN(S(=O)(=O)C(F)(F)F)C3)c(F)c1 [Compound 4] | > 100 µM | > 100 µM |  |  |  | pIC50 [1, 4]: 7.90 |
| O=C(NCc1ccc(-c2nc3n(n2)CCN(S(=O)(=O)C(F)(F)F)C3)c(F)c1)c1c(C(F)(F)F)nc2ccccn12 [Compound 6] |  |  | 0.66 | 134 µM | 88.5 µM | chemical stability, % by LCMS ([3]; 48 h): 100%; chemical stability, % by LCMS ([3]; 48 h, pH 1.6): 100%; Score [2]: [x]1 |
| CCc1nc2nc(C)c(Cl)cn2c1C(=O)NCc1ccc(-c2nc3n(n2)CCN(S(=O)(=O)C(F)(F)F)C3)cc1 [Compound 8] | 41.7 µM | 51.2 µM | 1.23 |  |  | pIC50 [1, 4]: 7.58; Score [2]: [x]1 |
| CCc1nc2cc(OC)c(Cl)cn2c1C(=O)NCc1ccc(-c2nc3n(n2)CCN(S(=O)(=O)C(F)(F)F)C3)c(F)c1 [Compound 10] |  |  |  | > 200 µM | > 200 µM | chemical stability, % by LCMS ([3]; 72 h): 97.03%; chemical stability, % by LCMS ([3]; 72 h, pH 1.6): 100% |
| CCc1nc2nc(N)c(Cl)cn2c1C(=O)NCc1ccc(-c2nc3n(n2)CCN(S(=O)(=O)C(F)(F)F)C3)c(F)c1 [Compound 12] |  |  |  |  |  | chemical stability, % by LCMS ([3]; 72 h): 96.14%; chemical stability, % by LCMS ([3]; 72 h, pH 1.6): 97.06% |
| CCc1nc2cc(NC)c(Cl)cn2c1C(=O)NCc1ccc(-c2nc3n(n2)CCN(S(=O)(=O)C(F)(F)F)C3)c(F)c1 [Compound 13] |  |  | 1.25 | 23.5 µM | 29.5 µM | IC50 [1, 7]: > 0.5 µM; Score [2]: [x]1 |
| CCc1nc2cc(N)c(Cl)cn2c1C(=O)NCc1ccc(-c2nc3n(n2)CCN(S(=O)(=O)C(F)(F)F)C3)c(F)c1 [Compound 14] |  |  |  |  |  | chemical stability, % by LCMS ([3]; 72 h): 100%; chemical stability, % by LCMS ([3]; 72 h, pH 1.6): 100% |
| CCc1nc2cc(Cl)c(C)cn2c1C(=O)NCc1ccc(-c2nc3n(n2)CCN(S(=O)(=O)C(F)(F)F)C3)c(F)c1 [Compound 19] | > 25 µM | > 25 µM |  |  |  | IC50 [1, 7]: 0.331 µM |
| CCc1nc2ncc(C)cn2c1C(=O)NC1(c2ccc(-c3nc4n(n3)CCN(S(=O)(=O)C(F)(F)F)C4)cc2)CC1 [Compound 68] |  |  |  | > 100 µM | > 100 µM | IC50 [1, 7]: > 0.501 µM |
| CCc1nc2ncc(C)cn2c1C(=O)NCc1cccc(Cc2nc3n(n2)CCN(S(=O)(=O)C(F)(F)F)C3)c1 [Compound 71] |  |  |  | > 200 µM | > 200 µM | IC50 [1, 7]: > 0.501 µM |
| CCc1nc2ncc(C)cn2c1C(=O)NCc1coc(-c2nc3n(n2)CCN(S(=O)(=O)C(F)(F)F)C3)n1 [Compound 72] |  |  |  | > 200 µM | > 200 µM | IC50 [1, 7]: > 0.501 µM |
| CCc1nc2ncc(C)cn2c1C(=O)NCc1ccc(-c2nn3c(c2C)CN(S(=O)(=O)C(F)(F)F)CC3)cc1 [Compound 85] | 30.1 µM | > 200 µM | >6.65 |  |  | AC50 [1, 4]: 0.018 µM; Score [2]: [x]3 |
| CCc1nc2ncc(C)cn2c1C(=O)NCc1ccc(-c2nc3n(c2C)CCN(S(=O)(=O)C(F)(F)F)C3)cc1 [Compound 86] |  |  |  | > 100 µM | > 100 µM | AC50 [1, 7]: 0.03 µM |
| CCc1nc2ncc(C)cn2c1C(=O)NCc1ccc(-c2nn3c(c2C)CN(S(=O)(=O)C(F)(F)F)CC3)c(F)c1 [Compound 87] | 25.4 µM | 85.8 µM | 3.38 |  |  | AC50 [1]: 0.036 µM |
| CCc1nc2ncc(C)cn2c1C(=O)NCc1ccc(-c2nn3c(c2OC)CN(S(=O)(=O)C(F)(F)F)CC3)cc1 [Compound 88] |  |  |  |  |  | AC50 [1, 4]: 0.00866 µM |
| CCc1nc2ncc(C)cn2c1C(=O)NCc1cccc(-c2cnn3c2CN(S(=O)(=O)C(F)(F)F)CC3)c1 [Compound 92] |  |  | 1.47 | 133 µM | 195 µM | AC50 [1, 7]: > 0.5 µM; Score [2]: [x]1 |
| O=C(NCc1ccc(-c2cc3n(n2)CCN(S(=O)(=O)C(F)(F)F)C3)cc1)c1c(C2CC2)nc2ncc(Cl)cn12 [Compound 104] | > 50 µM | > 50 µM |  |  |  | AC50 [1, 7]: 0.11 µM |
